Measurements reported in patent US12226409B2, “Treatment of hepatocellular carcinoma” (Eisai R&D Management Co., Ltd., priority 2017, dated 2025).

System: patients with unresectable HCC
Assay: Open-label phase 3 study, safety and side-effect profile (CTCAE v4.0)
Excerpt: Randomization was stratified according to region (Asia-Pacific or Western regions), macroscopic portal vein invasion and/or extrahepatic spread (yes or no), Eastern Cooperative Oncology Group performance status (0 or 1), and body weight (<60 kg or ≥60 kg).
Safety assessments included recording of vital signs, hematologic and biochemical laboratory testing, urinalysis, and electrocardiography.

Structure (SMILES): COc1cc2nccc(Oc3ccc(NC(=O)NC4CC4)c(Cl)c3)c2cc1C(N)=O [Lenvatinib, 4-(3-chloro-4(cyclopropylaminocarbonyl)aminophenoxy)-7-methoxy-6-quinolinecarboxamide]
- TEAE: Decreased appetite (8 mg per day): 33.1%
- TEAE: Diarrhea (8 mg per day): 35.1%
- TEAE: Hypertension (8 mg per day): 43.0%
- TEAE: decreased weight (8 mg per day): 28.5%
- Dose reduction/interruption: Abdominal pain (8 mg starting dose): 2 (1.3) n (%)
- Dose reduction/interruption: Abdominal pain upper (8 mg starting dose): 2 (1.3) n (%)
- Dose reduction/interruption: Alanine aminotransferase increased (8 mg starting dose): 2 (1.3) n (%)
- Dose reduction/interruption: Anemia (8 mg starting dose): 2 (1.3) n (%)
- Dose reduction/interruption: Ascites (8 mg starting dose): 3 (2.0) n (%)
- Dose reduction/interruption: Aspartate aminotransferase increased (8 mg starting dose): 4 (2.6) n (%)
- Dose reduction/interruption: Asthenia (8 mg starting dose): 3 (2.0) n (%)
- Dose reduction/interruption: Blood and lymphatic system disorders (8 mg starting dose): 5 (3.3) n (%)
- Dose reduction/interruption: Blood bilirubin increased (8 mg starting dose): 8 (5.3) n (%)
- Dose reduction/interruption: Decreased appetite (8 mg starting dose): 15 (9.9) n (%)
- Dose reduction/interruption: Dehydration (8 mg starting dose): 3 (2.0) n (%)
- Dose reduction/interruption: Diarrhea (8 mg starting dose): 8 (5.3) n (%)
- Dose reduction/interruption: Dyspnea (8 mg starting dose): 2 (1.3) n (%)
- Dose reduction/interruption: Edema peripheral (8 mg starting dose): 2 (1.3) n (%)
- Dose reduction/interruption: Esophageal varices hemorrhage (8 mg starting dose): 0 (0.0) n (%)
- Dose reduction/interruption: Fatigue (8 mg starting dose): 5 (3.3) n (%)
- Dose reduction/interruption: Gamma-glutamyltransferase increased (8 mg starting dose): 1 (0.7) n (%)
- Dose reduction/interruption: Gastrointestinal disorders (8 mg starting dose): 22 (14.6) n (%)
- Dose reduction/interruption: General disorders and administration site conditions (8 mg starting dose): 17 (11.3) n (%)
- Dose reduction/interruption: Hepatic encephalopathy (8 mg starting dose): 4 (2.6) n (%)
- Dose reduction/interruption: Hepatic function abnormal (8 mg starting dose): 0 (0.0) n (%)
- Dose reduction/interruption: Hepatobiliary disorders (8 mg starting dose): 2 (1.3) n (%)
- Dose reduction/interruption: Hypertension (8 mg starting dose): 3 (2.0) n (%)
- Dose reduction/interruption: Hyponatremia (8 mg starting dose): 2 (1.3) n (%)
- Dose reduction/interruption: Investigations (8 mg starting dose): 24 (15.9) n (%)
- Dose reduction/interruption: Malaise (8 mg starting dose): 2 (1.3) n (%)
- Dose reduction/interruption: Metabolism and nutrition disorders (8 mg starting dose): 21 (13.9) n (%)
- Dose reduction/interruption: Musculoskeletal and connective tissue disorders (8 mg starting dose): 4 (2.6) n (%)
- Dose reduction/interruption: Myalgia (8 mg starting dose): 1 (0.7) n (%)
- Dose reduction/interruption: Nausea (8 mg starting dose): 2 (1.3) n (%)
- Dose reduction/interruption: Nervous system disorders (8 mg starting dose): 7 (4.6) n (%)
- Dose reduction/interruption: Neutropenia (8 mg starting dose): 0 (0.0) n (%)
- Dose reduction/interruption: Neutrophil count decreased (8 mg starting dose): 4 (2.6) n (%)
- Dose reduction/interruption: Palmar-plantar erythrodysesthesia syndrome (8 mg starting dose): 4 (2.6) n (%)
- Dose reduction/interruption: Platelet count decreased (8 mg starting dose): 9 (6.0) n (%)
- Dose reduction/interruption: Proteinuria (8 mg starting dose): 4 (2.6) n (%)
- Dose reduction/interruption: Pyrexia (8 mg starting dose): 4 (2.6) n (%)
- Dose reduction/interruption: Rash (8 mg starting dose): 0 (0.0) n (%)
- Dose reduction/interruption: Rash maculo-papular (8 mg starting dose): 0 (0.0) n (%)
- Dose reduction/interruption: Renal and urinary disorders (8 mg starting dose): 5 (3.3) n (%)
- Dose reduction/interruption: Respiratory, thoracic and mediastinal disorders (8 mg starting dose): 4 (2.6) n (%)
- Dose reduction/interruption: Skin and subcutaneous tissue disorders (8 mg starting dose): 5 (3.3) n (%)
- Dose reduction/interruption: Stomatitis (8 mg starting dose): 2 (1.3) n (%)
- Dose reduction/interruption: Thrombocytopenia (8 mg starting dose): 2 (1.3) n (%)
- Dose reduction/interruption: Vascular disorders (8 mg starting dose): 3 (2.0) n (%)
- Dose reduction/interruption: Vomiting (8 mg starting dose): 1 (0.7) n (%)
- Dose reduction/interruption: Weight decreased (8 mg starting dose): 3 (2.0) n (%)
- Dose reduction/interruption: White blood cell count decreased (8 mg starting dose): 3 (2.0) n (%)
- Subjects with Any TEAEs (8 mg starting dose): 151 (100.0) n (%)
- Subjects with any TEAEs leading to Dose Reduction or Interruption (8 mg starting dose): 81 (53.6) n (%)
- TEAE: Abdominal pain (8 mg starting dose): 19 (12.6) n (%)
- TEAE: Abdominal pain upper (8 mg starting dose): 21 (13.9) n (%)
- TEAE: Alanine aminotransferase increased (8 mg starting dose): 17 (11.3) n (%)
- TEAE: Alopecia (8 mg starting dose): 5 (3.3) n (%)
- TEAE: Ascites (8 mg starting dose): 21 (13.9) n (%)
- TEAE: Aspartate aminotransferase increased (8 mg starting dose): 21 (13.9) n (%)
- TEAE: Asthenia (8 mg starting dose): 14 (9.3) n (%)
- TEAE: Back pain (8 mg starting dose): 11 (7.3) n (%)
- TEAE: Blood bilirubin increased (8 mg starting dose): 23 (15.2) n (%)
- TEAE: Constipation (8 mg starting dose): 19 (12.6) n (%)
- TEAE: Decreased appetite (8 mg starting dose): 50 (33.1) n (%)
- TEAE: Diarrhea (8 mg starting dose): 53 (35.1) n (%)
- TEAE: Dysphonia (8 mg starting dose): 28 (18.5) n (%)
- TEAE: Edema peripheral (8 mg starting dose): 23 (15.2) n (%)
- TEAE: Fatigue (8 mg starting dose): 42 (27.8) n (%)
- TEAE: Hypertension (8 mg starting dose): 65 (43.0) n (%)
- TEAE: Hypothyroidism (8 mg starting dose): 25 (16.6) n (%)
- TEAE: Nausea (8 mg starting dose): 24 (15.9) n (%)
- TEAE: Palmar-plantar erythrodysesthesia syndrome (8 mg starting dose): 35 (23.2) n (%)
- TEAE: Platelet count decreased (8 mg starting dose): 26 (17.2) n (%)
- TEAE: Proteinuria (8 mg starting dose): 37 (24.5) n (%)
- TEAE: Pyrexia (8 mg starting dose): 24 (15.9) n (%)
- TEAE: Rash (8 mg starting dose): 18 (11.9) n (%)
- TEAE: Stomatitis (8 mg starting dose): 11 (7.3) n (%)
- TEAE: Vomiting (8 mg starting dose): 22 (14.6) n (%)
- TEAE: Weight decreased (8 mg starting dose): 43 (28.5) n (%)
- TEAE: Decreased appetite (12 mg per day): 34.5%
- TEAE: Diarrhea (12 mg per day): 40.3%
- TEAE: Hypertension (12 mg per day): 41.8%
- TEAE: decreased weight (12 mg per day): 32.0%
- Dose reduction/interruption: Abdominal pain (12 mg starting dose): 4 (1.2) n (%)
- Dose reduction/interruption: Abdominal pain upper (12 mg starting dose): 3 (0.9) n (%)
- Dose reduction/interruption: Alanine aminotransferase increased (12 mg starting dose): 4 (1.2) n (%)
- Dose reduction/interruption: Anemia (12 mg starting dose): 1 (0.3) n (%)
- Dose reduction/interruption: Ascites (12 mg starting dose): 7 (2.2) n (%)
- Dose reduction/interruption: Aspartate aminotransferase increased (12 mg starting dose): 5 (1.5) n (%)
- Dose reduction/interruption: Asthenia (12 mg starting dose): 13 (4.0) n (%)
- Dose reduction/interruption: Blood and lymphatic system disorders (12 mg starting dose): 11 (3.4) n (%)
- Dose reduction/interruption: Blood bilirubin increased (12 mg starting dose): 12 (3.7) n (%)
- Dose reduction/interruption: Decreased appetite (12 mg starting dose): 21 (6.5) n (%)
- Dose reduction/interruption: Dehydration (12 mg starting dose): 3 (0.9) n (%)
- Dose reduction/interruption: Diarrhea (12 mg starting dose): 28 (8.6) n (%)
- Dose reduction/interruption: Dyspnea (12 mg starting dose): 6 (1.8) n (%)
- Dose reduction/interruption: Edema peripheral (12 mg starting dose): 4 (1.2) n (%)
- Dose reduction/interruption: Esophageal varices hemorrhage (12 mg starting dose): 5 (1.5) n (%)
- Dose reduction/interruption: Fatigue (12 mg starting dose): 22 (6.8) n (%)
- Dose reduction/interruption: Gamma-glutamyltransferase increased (12 mg starting dose): 6 (1.8) n (%)
- Dose reduction/interruption: Gastrointestinal disorders (12 mg starting dose): 65 (20.0) n (%)
- Dose reduction/interruption: General disorders and administration site conditions (12 mg starting dose): 50 (15.4) n (%)
- Dose reduction/interruption: Hepatic encephalopathy (12 mg starting dose): 16 (4.9) n (%)
- Dose reduction/interruption: Hepatic function abnormal (12 mg starting dose): 2 (0.6) n (%)
- Dose reduction/interruption: Hepatobiliary disorders (12 mg starting dose): 25 (7.7) n (%)
- Dose reduction/interruption: Hypertension (12 mg starting dose): 26 (8.0) n (%)
- Dose reduction/interruption: Hyponatremia (12 mg starting dose): 3 (0.9) n (%)
- Dose reduction/interruption: Investigations (12 mg starting dose): 57 (17.5) n (%)
- Dose reduction/interruption: Malaise (12 mg starting dose): 3 (0.9) n (%)
- Dose reduction/interruption: Metabolism and nutrition disorders (12 mg starting dose): 31 (9.5) n (%)
- Dose reduction/interruption: Musculoskeletal and connective tissue disorders (12 mg starting dose): 14 (4.3) n (%)
- Dose reduction/interruption: Myalgia (12 mg starting dose): 4 (1.2) n (%)
- Dose reduction/interruption: Nausea (12 mg starting dose): 14 (4.3) n (%)
- Dose reduction/interruption: Nervous system disorders (12 mg starting dose): 28 (8.6) n (%)
- Dose reduction/interruption: Neutropenia (12 mg starting dose): 6 (1.8) n (%)
- Dose reduction/interruption: Neutrophil count decreased (12 mg starting dose): 7 (2.2) n (%)
- Dose reduction/interruption: Palmar-plantar erythrodysesthesia syndrome (12 mg starting dose): 21 (6.5) n (%)
- Dose reduction/interruption: Platelet count decreased (12 mg starting dose): 13 (4.0) n (%)
- Dose reduction/interruption: Proteinuria (12 mg starting dose): 29 (8.9) n (%)
- Dose reduction/interruption: Pyrexia (12 mg starting dose): 8 (2.5) n (%)
- Dose reduction/interruption: Rash (12 mg starting dose): 2 (0.6) n (%)
- Dose reduction/interruption: Rash maculo-papular (12 mg starting dose): 0 (0.0) n (%)
- Dose reduction/interruption: Renal and urinary disorders (12 mg starting dose): 35 (10.8) n (%)
- Dose reduction/interruption: Respiratory, thoracic and mediastinal disorders (12 mg starting dose): 12 (3.7) n (%)
- Dose reduction/interruption: Skin and subcutaneous tissue disorders (12 mg starting dose): 23 (7.1) n (%)
- Dose reduction/interruption: Stomatitis (12 mg starting dose): 4 (1.2) n (%)
- Dose reduction/interruption: Thrombocytopenia (12 mg starting dose): 4 (1.2) n (%)
- Dose reduction/interruption: Vascular disorders (12 mg starting dose): 30 (9.2) n (%)
- Dose reduction/interruption: Vomiting (12 mg starting dose): 11 (3.4) n (%)
- Dose reduction/interruption: Weight decreased (12 mg starting dose): 17 (5.2) n (%)
- Dose reduction/interruption: White blood cell count decreased (12 mg starting dose): 3 (0.9) n (%)
- Subjects with Any TEAEs (12 mg starting dose): 319 (98.2) n (%)
- Subjects with any TEAEs leading to Dose Reduction or Interruption (12 mg starting dose): 213 (65.5) n (%)
- TEAE: Abdominal pain (12 mg starting dose): 62 (19.1) n (%)
- TEAE: Abdominal pain upper (12 mg starting dose): 37 (11.4) n (%)
- TEAE: Alanine aminotransferase increased (12 mg starting dose): 36 (11.1) n (%)
